Experimental data as given in PMC3666588 (Journal of medicinal chemistry, 2013).
“Also recorded” adds a separate entry of the source. Like-named read-outs stand apart in the source and are kept apart here.

How the values were obtained:
[1] = tested on: ERα LBD and CBP CH3 domain; conditions: prior report ref 16; cited from earlier work
[2] = target: T1, ERα (Homo sapiens, UniProt P03372); test: ERα radioligand; assay type: binding; conditions: for ERα RBA: RBA = IC50 for E2 / IC50 for the test compound; for RBA for human ERs: text summary for human ERs (ERα and ERβ)
T1 sequence (P03372 1-595): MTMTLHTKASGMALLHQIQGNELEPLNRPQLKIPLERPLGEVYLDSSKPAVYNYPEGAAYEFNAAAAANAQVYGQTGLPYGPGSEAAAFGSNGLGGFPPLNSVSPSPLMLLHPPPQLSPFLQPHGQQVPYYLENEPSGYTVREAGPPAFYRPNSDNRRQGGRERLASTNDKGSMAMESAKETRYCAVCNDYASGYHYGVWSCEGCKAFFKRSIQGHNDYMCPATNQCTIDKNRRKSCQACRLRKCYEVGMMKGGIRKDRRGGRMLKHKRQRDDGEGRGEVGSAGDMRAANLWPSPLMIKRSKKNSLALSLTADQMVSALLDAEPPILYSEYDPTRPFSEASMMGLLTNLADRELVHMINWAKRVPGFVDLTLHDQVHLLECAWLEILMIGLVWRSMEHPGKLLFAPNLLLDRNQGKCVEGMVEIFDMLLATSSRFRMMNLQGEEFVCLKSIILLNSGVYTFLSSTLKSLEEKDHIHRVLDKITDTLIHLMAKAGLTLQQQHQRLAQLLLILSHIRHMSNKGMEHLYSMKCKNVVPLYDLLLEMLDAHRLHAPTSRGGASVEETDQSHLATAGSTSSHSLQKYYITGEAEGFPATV

[3] = target: recombinant human ERβ (Homo sapiens, UniProt Q92731); test: ERβ radioligand; assay type: binding; conditions: RBA = IC50 for E2 / IC50 for the test compound
[4] = tested on: MCF-7 cells; test: In vitro cell proliferation assay; assay type: cell-based, human; conditions: 0-1000 nM, 6 days, 10% FBS, no additional estrogen
[5] = target: T2, ERα LBD and SRC-1 (Homo sapiens, UniProt P03372); test: Mammalian two-hybrid assay, ERα LBD - SRC-1 interaction in HeLa cells; assay type: cell-based; conditions: 100 nM ligand, GAL-SRC-1 + VP16-ERα-LBD
T2 sequence (P03372 311-547 limits assumed): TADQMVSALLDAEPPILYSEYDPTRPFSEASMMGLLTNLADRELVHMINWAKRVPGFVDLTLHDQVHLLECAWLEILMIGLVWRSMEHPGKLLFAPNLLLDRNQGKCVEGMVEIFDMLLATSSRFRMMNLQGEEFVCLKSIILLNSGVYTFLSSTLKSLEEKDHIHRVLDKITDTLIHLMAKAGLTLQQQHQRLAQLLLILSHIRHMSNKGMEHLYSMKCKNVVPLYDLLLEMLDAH

[6] = target: T1, ERα; test: ERα trans-activation luciferase reporter assay in HeLa cells; conditions: for ERα agonist activity in HeLa or MCF-7 cells: 100 nM derivative, pCR3.1-ERα + ERE-Elb-Luc; for antagonism of E2-stimulated luciferase expression in HeLa cells: in presence of 1 nM E2
[7] = target: T1, ERα; test: ERα trans-activation luciferase reporter assay in MCF-7 cells; conditions: 100 nM derivative, compared with 1 nM E2; ERE-Elb-Luc reporter
[8] = target: T1, ERα; test: ERα trans-activation luciferase reporter assay in HepG2 cells
[9] = tested on: MDA-MB-231 cells; test: In vitro cell proliferation assay; assay type: cell-based, human; conditions: 0-1000 nM, 6 days

Sequence of recombinant human ERβ (Q92731 whole entry): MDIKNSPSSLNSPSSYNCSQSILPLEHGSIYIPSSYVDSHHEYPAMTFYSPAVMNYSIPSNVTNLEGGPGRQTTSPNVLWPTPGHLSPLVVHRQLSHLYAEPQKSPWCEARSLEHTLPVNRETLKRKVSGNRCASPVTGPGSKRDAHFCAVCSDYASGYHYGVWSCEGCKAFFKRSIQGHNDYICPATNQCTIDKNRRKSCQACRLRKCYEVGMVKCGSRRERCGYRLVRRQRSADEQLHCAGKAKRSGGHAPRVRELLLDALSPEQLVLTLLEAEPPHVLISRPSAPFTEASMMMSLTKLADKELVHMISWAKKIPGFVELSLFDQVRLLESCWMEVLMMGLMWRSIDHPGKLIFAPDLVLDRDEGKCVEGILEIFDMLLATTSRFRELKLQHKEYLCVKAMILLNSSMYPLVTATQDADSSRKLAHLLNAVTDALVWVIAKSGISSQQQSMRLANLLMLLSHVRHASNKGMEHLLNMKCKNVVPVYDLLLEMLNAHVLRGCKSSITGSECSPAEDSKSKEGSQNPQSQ

Row | SMILES | promotion of ERα interaction with CBP coactivator [1] | ERα RBA [2] | RBA for the human ERα ([2]; stated in docking discussion) | RBA for human ERs [2] | ERβ RBA [3] | effect on growth of ER-positive MCF-7 cells [4] | promotion of ERα - SRC-1 coactivator interaction [5] | ERα agonist activity in HeLa or MCF-7 cells [6] | antagonism of E2-stimulated luciferase expression in HeLa cells [6] | ERα agonist activity (transcription of target gene) in MCF-7 cells [7] | agonist activity in HepG2 cells relative to E2 ([8]; 100 nM derivative, normalized to 1 nM E2, pCR3.1-ERα + ERE-Elb-Luc) | effect on growth of ER-negative MDA-MB-231 cells [9] | agonist activity in HepG2 cells relative to E2 [8]
1 | C[C@]12CC[C@@H]3c4ccc(O)cc4C[C@@H](CCCCCCCCC[S+]([O-])CCCC(F)(F)C(F)(F)F)[C@H]3[C@@H]1CC[C@@H]2O (stereo partly shown) [ICI-182,780, fulvestrant] | strongly promote ERα interaction with the CBP coactivator |  |  |  |  |  |  |  |  |  |  |  | 
2 | C[C@]12CC[C@@H]3c4ccc(O)cc4C[C@@H](CCCCc4cn(CC5COc6ccccc6O5)nn4)[C@H]3[C@@H]1CC[C@@H]2O (stereo partly drawn) [J9, 3,17β-bis(hydroxy)-7α-{4-[1-(2,3-Dihydro-1,4-benzodioxin-2-ylmethyl)-1H-1,2,3-triazol-4-yl]-butyl}-estra-1,3,5(10)-trien] |  | 24.6% | 24.6 % of E2 | > 20 % of E2 | 21.1% | concentration-dependent inhibition | did not induce significant SRC-1 binding | poor agonists | strongest antagonists | no agonist activity | approximately 50 % of the agonist activity of E2 |  | 
3 | C[C@]12CC[C@@H]3c4ccc(O)cc4C[C@@H](CCCCC#Cc4ccc(CN5CCCCC5)cc4)[C@H]3[C@@H]1CC[C@@H]2O [J6, 3,17β-bis(hydroxy)-7α-[6-(4-piperidin-1-ylmethyl-phenyl)-hex-5-ynyl]-estra-1,3,5(10)-trien] |  | 0.9% |  | approximately 1 % of E2 |  | either no effect or a stimulatory effect; also recorded: did not show an appreciable effect | effectively promoted the interaction |  |  | markedly weaker effect |  |  | 
4 | CCOC(=O)CC(=O)c1ccc(C#CCCCC[C@@H]2Cc3cc(O)ccc3[C@H]3CC[C@]4(C)[C@@H](O)CC[C@H]4[C@H]23)cc1 [J5, 3-{4-[6-((7α,17β)-3,17-dihydroxyestra-1,3,5(10)-trien-7-yl)-hex-1-ynyl]-phenyl}-3-oxo-propionic acid ethyl ester] |  | 6.2% |  |  | 4.7% | either no effect or a stimulatory effect; also recorded: did not show an appreciable effect | effectively promoted the interaction |  |  |  |  |  | 
5 | CCOC(=O)C(Cc1ccc(C#CCCCC[C@@H]2Cc3cc(O)ccc3[C@H]3CC[C@]4(C)[C@@H](O)CC[C@H]4[C@H]23)cc1)C(=O)OCC [J8, 2-{4-[6-((7α,17β)-3,17-dihydroxyestra-1,3,5(10)-trien-7-yl)-hex-1-ynyl]-benzyl}-malonic acid diethyl ester] |  | 4.7% |  |  | 5.8% | either no effect or a stimulatory effect; also recorded: did not show an appreciable effect | effectively promoted the interaction |  |  | markedly weaker effect |  |  | 
6 | C[C@]12CC[C@@H]3c4ccc(O)cc4C[C@@H](CCCCc4cn(-c5cc6ccc(O)cc6oc5=O)nn4)[C@H]3[C@@H]1CC[C@@H]2O [J7, 3-{4-[4-((7α,17β)-3,17-dihydroxyestra-1,3,5(10)-trien-7-yl)-butyl]-1,2,3-triazol-1-yl}-7-hydroxy-1-benzopyran-2-one] |  |  |  |  |  | concentration-dependent inhibition | did not induce significant SRC-1 binding |  | strongest antagonists | no agonist activity |  |  | 
7 | CC(C)(C)OC(=O)N1CCN(c2ccc(C#CCCCC[C@@H]3Cc4cc(O)ccc4[C@H]4CC[C@]5(C)[C@@H](O)CC[C@H]5[C@H]34)cc2)CC1 [J4, 4-{4-[6-((7α,17β)-3,17-dihydroxyestra-1,3,5(10)-trien-7-yl)-hex-1-ynyl]-phenyl}-piperazine-1-carboxylic acid tert-butyl ester] |  | 1.1% |  | approximately 1 % of E2 | 2.0% | concentration-dependent inhibition | did not induce significant SRC-1 binding |  | less effective inhibitors | very poor agonists |  | no appreciable effect; also recorded: did not show an appreciable effect | 
8 | C[C@]12CC[C@@H]3c4ccc(O)cc4C[C@@H](CCCCC#Cc4ccc(-c5ccno5)cc4)[C@H]3[C@@H]1CC[C@@H]2O [J3, 3,17β-bis(hydroxy)-7α-[6-(4-Isoxazol-5-yl-phenyl)-hex-5-ynyl]-estra-1,3,5(10)-trien] |  |  |  | approximately 1 % of E2 |  | concentration-dependent inhibition | did not induce significant SRC-1 binding | poor agonists | less effective inhibitors | very poor agonists |  | no appreciable effect; also recorded: did not show an appreciable effect | approximately 50 % of the agonist activity of E2
9 | C[C@]12CC[C@@H]3c4ccc(O)cc4C[C@@H](CCCCC#Cc4ccc5ccccc5c4)[C@H]3[C@@H]1CC[C@@H]2O [J2, 3,17β-bis(hydroxy)-7α-(6-naphthalen-2-yl-hex-5-ynyl)-estra-1,3,5(10)-trien] |  | 3.4% |  |  |  | either no effect or a stimulatory effect; also recorded: did not show an appreciable effect | effectively promoted the interaction |  |  |  |  |  | 
10 | C[C@]12CC[C@@H]3c4ccc(O)cc4C[C@@H](CCCCC#Cc4ccc(-n5cccc5)cc4)[C@H]3[C@@H]1CC[C@@H]2O [J1, 3,17β-bis(hydroxy)-7α-[6-(4-pyrrol-1-yl-phenyl)-hex-5-ynyl]-estra-1,3,5(10)-trien] |  | 21.2% |  | > 20 % of E2 |  | either no effect or a stimulatory effect; also recorded: did not show an appreciable effect | effectively promoted the interaction |  |  |  |  |  | 
